Measurements taken from PubChem BioAssay (NCI).
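Briefly, cells in 96-well plates were exposed to five compound concentrations for 48 h, and endpoints were estimated by linear interpolation. The concentration for 50% growth inhibition is given as GI50. TGI is the concentration that stops growth completely.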

Tests used:
Assay in all cases: inhibition of tumour cell growth, NCI panel, 48 h
MDA-MB-468 breast = test system: MDA-MB-468 breast
KM12 colon = test system: KM12 colon
MDA-MB-435 = test system: MDA-MB-435
UACC-62 melanoma = test system: UACC-62 melanoma
RXF 393 renal = test system: RXF 393 renal
HL-60(TB) leukemia = test system: HL-60(TB) leukemia
SK-OV-3 ovarian = test system: SK-OV-3 ovarian
SN12C renal = test system: SN12C renal
NCI-H460 lung = test system: NCI-H460 lung
CAKI-1 renal = test system: CAKI-1 renal
SF-295 CNS = test system: SF-295 CNS
EKVX NSCLC = test system: EKVX NSCLC
A498 renal = test system: A498 renal
NCI-H23 lung = test system: NCI-H23 lung
LOX IMVI melanoma = test system: LOX IMVI melanoma
SW-620 colon = test system: SW-620 colon
NCI/ADR-RES ovarian = test system: NCI/ADR-RES ovarian
OVCAR-3 ovarian = test system: OVCAR-3 ovarian
HCC-2998 colon = test system: HCC-2998 colon
SK-MEL-5 melanoma = test system: SK-MEL-5 melanoma
HCT-116 colon = test system: HCT-116 colon
786-0 renal = test system: 786-0 renal
SK-MEL-28 melanoma = test system: SK-MEL-28 melanoma
SF-539 CNS = test system: SF-539 CNS
CCRF-CEM leukemia = test system: CCRF-CEM leukemia
HOP-92 NSCLC = test system: HOP-92 NSCLC
U251 CNS = test system: U251 CNS
IGROV1 ovarian = test system: IGROV1 ovarian
SNB-19 CNS = test system: SNB-19 CNS
OVCAR-8 ovarian = test system: OVCAR-8 ovarian
HCT-15 colon = test system: HCT-15 colon
DU-145 prostate = test system: DU-145 prostate
M14 melanoma = test system: M14 melanoma
NCI-H522 lung = test system: NCI-H522 lung
PC-3 prostate = test system: PC-3 prostate
UACC-257 melanoma = test system: UACC-257 melanoma
SK-MEL-2 melanoma = test system: SK-MEL-2 melanoma
NCI-H226 lung = test system: NCI-H226 lung
MOLT-4 leukemia = test system: MOLT-4 leukemia
HS 578T breast = test system: HS 578T breast
HOP-62 NSCLC = test system: HOP-62 NSCLC
COLO 205 colon = test system: COLO 205 colon
MCF7 breast = test system: MCF7 breast
SF-268 CNS = test system: SF-268 CNS
ACHN renal = test system: ACHN renal
TK-10 renal = test system: TK-10 renal
SNB-75 CNS = test system: SNB-75 CNS
MALME-3M melanoma = test system: MALME-3M melanoma
BT-549 breast = test system: BT-549 breast
OVCAR-5 ovarian = test system: OVCAR-5 ovarian
RPMI-8226 leukemia = test system: RPMI-8226 leukemia
T-47D breast = test system: T-47D breast
A549 NSCLC = test system: A549 NSCLC
OVCAR-4 ovarian = test system: OVCAR-4 ovarian
K-562 leukemia = test system: K-562 leukemia
HT29 colon = test system: HT29 colon

SMILES: COc1cc(/C=N/Nc2ncnc3c2cnn3Cc2ccccc2)ccc1O
- GI50 (MDA-MB-468 breast): 7.88 µM
- TGI (MDA-MB-468 breast): > 25 µM

SMILES: O=C(Nc1cccc(-n2cc(-c3ccncc3)c(-c3ccc(O)c(Cl)c3)n2)c1)c1ccc(N2CCOCC2)c(C(F)(F)F)c1
- GI50 (MDA-MB-468 breast): 35.3 µM
- TGI (MDA-MB-468 breast): > 50 µM

SMILES: O=C1CCCC(=O)C1C(=O)c1ccc(C(F)(F)F)cc1[N+](=O)[O-]
- GI50 (MDA-MB-468 breast): > 100 µM
- TGI (MDA-MB-468 breast): > 100 µM

SMILES: CCOC(=O)c1c(NC(=O)c2ccccc2C(F)(F)F)sc2c1CCC(=O)C2
- GI50 (MDA-MB-468 breast): 2.35 µM
- TGI (MDA-MB-468 breast): 7.52 µM

SMILES: CN1CCN(CCCN2c3ccccc3Sc3ccc(C(F)(F)F)cc32)CC1
- GI50 (MDA-MB-468 breast): 1.52 µM
- TGI (MDA-MB-468 breast): 3.19 µM

SMILES: O=C1C(Cl)=C(Nc2ccccn2)C(=O)c2ccccc21
- GI50 (MDA-MB-468 breast): 1.99 µM
- TGI (MDA-MB-468 breast): 4.39 µM

SMILES: O=C1c2ccccc2CCC1(Br)Br
- GI50 (MDA-MB-468 breast): 1.2 µM
- TGI (MDA-MB-468 breast): 2.95 µM

SMILES: Cc1[nH]c2ccccc2c1C1=CC(=O)C=CC1=O
- GI50 (MDA-MB-468 breast): 3.1 µM
- TGI (MDA-MB-468 breast): 11.2 µM

SMILES: O=C(Nc1ccc(O)c(NS(=O)(=O)c2ccc(F)cc2)c1)c1ccc(-c2ccccc2)cc1
- GI50 (MDA-MB-468 breast): 2.48 µM
- TGI (MDA-MB-468 breast): 10.8 µM

SMILES: CS(=O)(=O)c1ccc(-c2[nH]c3ccc(F)cc3c2/C=N/NC(N)=S)cc1
- GI50 (MDA-MB-468 breast): 2.67 µM
- TGI (MDA-MB-468 breast): 13.4 µM

SMILES: COc1cc(C2C(C(=O)OCc3ccccc3)=C(C)NC(C)=C2C(=O)OCc2ccccc2)cc(OC)c1OC
- GI50 (MDA-MB-468 breast): 2.43 µM
- TGI (MDA-MB-468 breast): > 100 µM

SMILES: CCCN(CCC)c1ccc(/C=N/NC(=O)c2cccnc2)cc1
- GI50 (MDA-MB-468 breast): 16.4 µM
- TGI (MDA-MB-468 breast): 84.2 µM

SMILES: c1ccc(C2=NN[C@H](c3cn(-c4ccccc4)nc3-c3ccccc3)C2)cc1
- GI50 (MDA-MB-468 breast): 4.18 µM
- TGI (MDA-MB-468 breast): > 100 µM

SMILES: Nc1ncnc2c1c(C(=O)NO)cn2C1OC(CO)C(O)C1O (configuration not stated)
- GI50 (MDA-MB-468 breast): 0.115 µM
- TGI (MDA-MB-468 breast): 0.908 µM

SMILES: CC(=O)Nc1ccc(S(=O)(=O)c2ccc(NC(C)=O)cc2)cc1
- GI50 (MDA-MB-468 breast): 64.8 µM
- TGI (MDA-MB-468 breast): > 100 µM

SMILES: CO[C@@H]1CSSC1Cn1nc(-c2ccc(Oc3ccccc3)cc2)c2c(N)ncnc21 (some centres not stated)
- GI50 (KM12 colon): 8.73 µM
- TGI (KM12 colon): > 100 µM
- GI50 (MDA-MB-435): 3.19 µM
- TGI (MDA-MB-435): 10.2 µM
- GI50 (UACC-62 melanoma): 14.5 µM
- TGI (UACC-62 melanoma): > 100 µM
- GI50 (RXF 393 renal): 50.3 µM
- TGI (RXF 393 renal): > 100 µM
- GI50 (HL-60(TB) leukemia): 6.13 µM
- TGI (HL-60(TB) leukemia): > 100 µM
- GI50 (SK-OV-3 ovarian): 3.25 µM
- TGI (SK-OV-3 ovarian): 24.6 µM
- GI50 (SN12C renal): > 100 µM
- TGI (SN12C renal): > 100 µM
- GI50 (NCI-H460 lung): 3.43 µM
- TGI (NCI-H460 lung): 76.5 µM
- GI50 (CAKI-1 renal): > 100 µM
- TGI (CAKI-1 renal): > 100 µM
- GI50 (SF-295 CNS): 62 µM
- TGI (SF-295 CNS): > 100 µM
- GI50 (EKVX NSCLC): 7.29 µM
- TGI (EKVX NSCLC): > 100 µM
- GI50 (A498 renal): 99 µM
- TGI (A498 renal): > 100 µM
- GI50 (NCI-H23 lung): > 100 µM
- TGI (NCI-H23 lung): > 100 µM
- GI50 (MDA-MB-468 breast): 5.18 µM
- TGI (MDA-MB-468 breast): 86.5 µM
- GI50 (LOX IMVI melanoma): 43.9 µM
- TGI (LOX IMVI melanoma): > 100 µM
- GI50 (SW-620 colon): 57.9 µM
- TGI (SW-620 colon): > 100 µM
- GI50 (NCI/ADR-RES ovarian): > 100 µM
- TGI (NCI/ADR-RES ovarian): > 100 µM
- GI50 (OVCAR-3 ovarian): 63.5 µM
- TGI (OVCAR-3 ovarian): > 100 µM
- GI50 (HCC-2998 colon): 21 µM
- TGI (HCC-2998 colon): > 100 µM
- GI50 (SK-MEL-5 melanoma): 14.8 µM
- TGI (SK-MEL-5 melanoma): > 100 µM
- GI50 (HCT-116 colon): 5.36 µM
- TGI (HCT-116 colon): > 100 µM
- GI50 (786-0 renal): > 100 µM
- TGI (786-0 renal): > 100 µM
- GI50 (SK-MEL-28 melanoma): 2.87 µM
- TGI (SK-MEL-28 melanoma): 21 µM
- GI50 (SF-539 CNS): > 100 µM
- TGI (SF-539 CNS): > 100 µM
- GI50 (CCRF-CEM leukemia): 4.29 µM
- TGI (CCRF-CEM leukemia): > 100 µM
- GI50 (HOP-92 NSCLC): > 100 µM
- TGI (HOP-92 NSCLC): > 100 µM
- GI50 (U251 CNS): > 100 µM
- TGI (U251 CNS): > 100 µM
- GI50 (IGROV1 ovarian): > 100 µM
- TGI (IGROV1 ovarian): > 100 µM
- GI50 (SNB-19 CNS): > 100 µM
- TGI (SNB-19 CNS): > 100 µM
- GI50 (OVCAR-8 ovarian): > 100 µM
- TGI (OVCAR-8 ovarian): > 100 µM
- GI50 (HCT-15 colon): 33.3 µM
- TGI (HCT-15 colon): > 100 µM
- GI50 (DU-145 prostate): > 100 µM
- TGI (DU-145 prostate): > 100 µM
- GI50 (M14 melanoma): 1.99 µM
- TGI (M14 melanoma): 4.35 µM
- GI50 (NCI-H522 lung): 41.8 µM
- TGI (NCI-H522 lung): > 100 µM
- GI50 (PC-3 prostate): 58.7 µM
- TGI (PC-3 prostate): > 100 µM
- GI50 (UACC-257 melanoma): 16.2 µM
- TGI (UACC-257 melanoma): > 100 µM
- GI50 (SK-MEL-2 melanoma): 22.8 µM
- TGI (SK-MEL-2 melanoma): > 100 µM
- GI50 (NCI-H226 lung): 39.7 µM
- TGI (NCI-H226 lung): > 100 µM
- GI50 (MOLT-4 leukemia): 2.24 µM
- TGI (MOLT-4 leukemia): 6.52 µM
- GI50 (HS 578T breast): > 100 µM
- TGI (HS 578T breast): > 100 µM
- GI50 (HOP-62 NSCLC): 16.4 µM
- TGI (HOP-62 NSCLC): > 100 µM
- GI50 (COLO 205 colon): 53.2 µM
- TGI (COLO 205 colon): > 100 µM
- GI50 (MCF7 breast): 6.87 µM
- TGI (MCF7 breast): > 100 µM
- GI50 (SF-268 CNS): 8.22 µM
- TGI (SF-268 CNS): > 100 µM
- GI50 (ACHN renal): 12.3 µM
- TGI (ACHN renal): > 100 µM
- GI50 (TK-10 renal): 37.9 µM
- TGI (TK-10 renal): > 100 µM
- GI50 (SNB-75 CNS): > 100 µM
- TGI (SNB-75 CNS): > 100 µM
- GI50 (MALME-3M melanoma): 62.7 µM
- TGI (MALME-3M melanoma): > 100 µM
- GI50 (BT-549 breast): > 100 µM
- TGI (BT-549 breast): > 100 µM
- GI50 (OVCAR-5 ovarian): 51.5 µM
- TGI (OVCAR-5 ovarian): > 100 µM
- GI50 (RPMI-8226 leukemia): 43.3 µM
- TGI (RPMI-8226 leukemia): > 100 µM
- GI50 (T-47D breast): 6.14 µM
- TGI (T-47D breast): > 100 µM
- GI50 (A549 NSCLC): 13.9 µM
- TGI (A549 NSCLC): > 100 µM
- GI50 (OVCAR-4 ovarian): > 100 µM
- TGI (OVCAR-4 ovarian): > 100 µM
- GI50 (K-562 leukemia): 3.6 µM
- TGI (K-562 leukemia): > 100 µM
- GI50 (HT29 colon): 6.82 µM
- TGI (HT29 colon): > 100 µM
